The source of these data is patent publication EP0474374A1, “Method for treatment of bone wasting diseases using a progestin” (ORTHO PHARMACEUTICAL CORPORATION, priority 1990, dated 1992).

As a reminder, the IC50 is the concentration needed to halve the response being measured.

Structures are written as SMILES. “Also recorded” adds a separate entry of the source.

Assay [1] relates to MC3T3-El osteoblast-line cells. Kind of assay: Osteoblast cell proliferation (3H-thymidine incorporation into DNA). The format is cell-based, mouse. The conditions noted are these: for OSTEOBLAST STIMULATION: ability to stimulate 3H-thymidine incorporation in MC3T3-El osteoblast-line cells, stimulation over control; for osteoblast proliferation and differentiation: summary statement in words, bone forming cells, cell line not named. (In general: Dividing cells build labelled thymidine or BrdU into new DNA.)
Description: Only cells undergoing mitosis will synthesize new DNA and thus only these cells will incorporate the radiolabelled DNA specific nucleotide, thymidine. […] The ability of agents to increase osteoblast proliferation and differentiation can be predicted by their action on cultured osteoblast-line cells in vitro. In this test mouse (MC3T3-El), and human (TE-85) osteoblast-line cells were cultured in vitro and the effect of various progestins was tested on osteoblast cell proliferation. Osteoblast cell proliferation was determined by measuring the rate of DNA synthesis, which was quantified by measuring the rate of ³H-thymidine incorporation into DNA.
Following their placement into 96 well culture plates all the osteoblast-line cells, either the MC3T3-El or the TE-85 cell lines, were allowed an additional 24 hours preincubation period in media containing only 0.1% fetal bovine sera. The next day the test compounds were added and screened at concentrations ranging from 10⁻¹⁴ to 10⁻⁶ M depending on the particular study. Twenty hours later a 20 ul aliquot of media containing 0.4 uCi of ³H-thymidine was added to each culture well. The cells were then incubated for an additional 4 hours. The incubation was terminated by aspirating the media and washing with HBSS (Hank's Balanced Salt Solution). The cells were then treated with 100 ul of Trypsin-EDTA (Ethylene Diamine Tetra Acetic Acid) (0.5% trypsin and 5.3 mM EDTA) for 30 minutes at room temperature. The cells were then aspirated onto a glass fiber filter and washed with water. The radioactivity on the filters was quantified by liquid scintillation spectroscopy. The rate of ³H-thymidine incorporation into DNA is then utilized as an index of cell proliferation.
Mouse (MC3T3-El) osteoblast-line cells were cultured in vitro and the effect of various progestins on the ability of the cells to incorporate 3H-thymidine was determined. Osteoblast cell proliferation is determined by measuring the rate of DNA synthesis which was quantified by measuring the rate of ³H-thymidine incorporation into DNA. MC-3T3-El osteoblast-line cells were harvested from large culture flasks where they were allowed to grow to near confluency using Trypsin.

For assay [2], the target named is T1, rat prostate androgen cytosolic receptors (Rattus norvegicus, UniProt P15207).
T1 construct: the supernatant was used as the cytosolic androgen receptor preparation; from tissue; host or cells: ventral prostate glands of castrated male rats (250-300 g); 105,000 g cytosol supernatant
T1 sequence (P15207 1-902): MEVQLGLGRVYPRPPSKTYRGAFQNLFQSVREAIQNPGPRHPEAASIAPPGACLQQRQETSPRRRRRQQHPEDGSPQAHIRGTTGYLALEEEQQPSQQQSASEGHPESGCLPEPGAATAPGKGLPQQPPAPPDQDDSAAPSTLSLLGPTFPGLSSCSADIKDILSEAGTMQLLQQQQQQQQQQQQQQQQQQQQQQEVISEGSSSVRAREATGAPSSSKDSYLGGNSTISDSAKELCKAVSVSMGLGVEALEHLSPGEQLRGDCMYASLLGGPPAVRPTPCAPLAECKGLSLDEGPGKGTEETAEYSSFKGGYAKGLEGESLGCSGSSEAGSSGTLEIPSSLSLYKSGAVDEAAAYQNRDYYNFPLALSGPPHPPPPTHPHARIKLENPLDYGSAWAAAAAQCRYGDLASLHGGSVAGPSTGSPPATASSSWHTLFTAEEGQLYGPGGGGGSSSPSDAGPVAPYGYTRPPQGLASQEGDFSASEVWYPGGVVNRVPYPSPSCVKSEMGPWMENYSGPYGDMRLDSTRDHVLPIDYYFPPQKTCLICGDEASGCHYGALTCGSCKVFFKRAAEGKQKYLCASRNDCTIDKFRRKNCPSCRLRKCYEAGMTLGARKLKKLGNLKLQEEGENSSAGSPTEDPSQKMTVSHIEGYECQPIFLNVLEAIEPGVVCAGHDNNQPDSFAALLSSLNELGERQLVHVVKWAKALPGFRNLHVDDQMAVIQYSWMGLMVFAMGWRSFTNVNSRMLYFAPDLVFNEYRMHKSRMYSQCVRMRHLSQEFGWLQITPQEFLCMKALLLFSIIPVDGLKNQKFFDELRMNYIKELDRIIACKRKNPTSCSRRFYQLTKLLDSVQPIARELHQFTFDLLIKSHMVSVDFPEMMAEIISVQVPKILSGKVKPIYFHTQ
The assay can be described thus: Androgen receptor binding (competitive 3H-DHT displacement). The conditions noted are these: 1 nM 3H-DHT, 24 hours at 4°C; mean + 1 S.E. of 4 determinations in duplicate.
Description: The relative binding affinity of other steroids, such as progestins, for androgen receptors can be determined by evaluating their ability to displace ³H-DHT from these rat ventral prostate receptors in vitro. Cytosolic androgen receptors were prepared from ventral prostate glands isolated from castrated male rats (250-300 g). Ventral prostate glands were homogenized and centrifuged at 105,000 g for 60 min at 4°C and the supernatant was used as the cytosolic androgen receptor preparation. […] The relative degree of receptor binding of the test progestin was expressed as percent inhibition of total ³H-DHT binding.
The relative binding affinity of other steroids, such as progestins, for androgen receptors is determined by evaluating their ability to displace ³H-DHT from these rat ventral prostate receptors in vitro. Cytosolic androgen receptors were prepared from ventral prostate glands isolated from castrate male rats (250-300 g). Ventral prostate glands were homogenized and centrifuged at 105,000 g for 60 min at 4°C and the supernatant used as the cytosolic androgen receptor preparation. […] The relative degree of receptor binding of the test progestin was expressed as percent inhibition of total ³H-DHT binding.
Relative androgen receptor binding activity was analyzed in competitive binding assays utilizing 3H-DHT binding for rat prostate androgen cytosolic receptors.

Assay [3] concerns T47D breast carcinoma-line cells. Kind of assay: Breast carcinoma cell proliferation (3H-thymidine incorporation into DNA). The format is cell-based, human. The conditions noted are these: 0.00001 to 100 nM, result in words. As for the experimental part: T47D breast (Human) carcinoma-line cells (American Type Tissue Culture Collection #HTB 133, Rockville, MD) were harvested using Trypsin from large (175 cm²) culture flasks where they were allowed to grow to near confluency. The cells were plated into 96 well culture plates, 1600 cells in 100 ul per well in DMEM with 25 mM Hepes buffer, L-glutamine (584 mg/l); D-glucose (4.5 gm/l) supplemented with 10% fetal bovine sera; penicillin (100 units/ml) and streptomycin (100 mcg/ml); sodium pyruvate (10 uM final concentration). The cells were allowed to plate overnight in DMEM containing 10% fetal bovine sera at 37°C in an atmosphere of 5% CO₂/95% air. Following their placement into 96 well culture plates, the cells were incubated for an additional 24 hour preincubation period in media containing only 0.1% fetal bovine sera. The next day the test compounds were added and screened at concentrations ranging from 10⁻¹⁴ to 10⁻⁶ M depending on the particular study. Twenty hours later a 20 ul aliquot of media containing 0.4 uCi of ³H-thymidine was added to each culture well. The cells were then incubated for an additional 4 hours. […] The radioactivity on the filters was quantified by liquid scintillation spectroscopy. […]
MC3T3-El cells were cultured as described in Example #1. […] The radioactivity on the filters was quantified by liquid scintillation spectroscopy. […]

Assay [4] concerns MC3T3-El osteoblast-line cells. Kind of assay: Osteoblast cell number by Coulter counting. The format is cell-based, mouse. The conditions noted are these: 0.01 to 100 nM, 5 days, no fetal bovine sera; result in words. The method, then:
In this study MC3T3-El osteoblast-line cells were cultured into 6 well plates at a density of 50,000 cells/well in 10% fetal bovine sera. The following day media was changed to that containing no fetal bovine sera . The next day some of the cells were harvested by trypsin and counted using a Coulter cell counter. This count was considered as Day 0. […] After 5 days all of the cells were harvested and counted using a Coulter cell counter.
Figure 2. […] Each striped bar represents the mean and the vertical line l S.E.M. of 6 determinations.

The test system of assay [5] is TE-85 human osteoblast-line cells. Kind of assay: Osteoblast cell proliferation (3H-thymidine incorporation into DNA). The format is cell-based. The conditions noted are these: TE-85 cells, 0.0001 to 100 nM; result in words. From the text:
The action of select progestins to stimulate osteoblast proliferation can be measured in culture by estimating the rate of DNA synthesis by the rate of 3H-thymidine incorporation into DNA. Only cells undergoing mitosis will synthesize new DNA and thus only these cells will incorporate the radiolabelled DNA specific nucleotide, thymidine. The stimulation of the proliferation and differentiation of bone-forming cells, osteoblasts, is a prerequisite for an increase in bone formation and bone mass. The ability of agents to increase osteoblast proliferation and differentiation can be predicted by their action on cultured osteoblast-line cells in vitro. […] Osteoblast cell proliferation was determined by measuring the rate of DNA synthesis, which was quantified by measuring the rate of ³H-thymidine incorporation into DNA. […]
MC-3T3-El (cloned by Sudo and Coworkers, Koriyama Japan) and TE85 (American Type Tissue Culture Collection #CRL 1543, Rockville, MD) osteoblast-line cells were harvested from large culture flasks (175 cm²) where they were allowed to grow to near confluency using Trypsin. […] The radioactivity on the filters was quantified by liquid scintillation spectroscopy. […]
Osteoblast growth was determined by me: ring the rate of 3H-thymidine incorporation into DNA as in Example #1. […]

Assay [6] shares this test system. The assay can be described thus: Alkaline phosphatase secretion into the media (osteoblast differentiation). Type of assay: cell-based. As for the experimental part:
Osteoblast growth was determined by me: ring the rate of 3H-thymidine incorporation into DNA as in Example #1. Osteoblast differention was estimated by measuring the secretion of skeletal alkaline phosphatase into the media. Skeletal alkaline phosphatase is considered a reliable marker of osteoblast differention and activity. TE-85 human osteoblast-line cells were cultured as described previously in Example #1. […] 3H-Thymidine incorporation into the osteoblast cell DNA and alkaline phosphatase secreted into the media was measured simultaneously (Figure 3 and 4).

For the compound `C#C[C@]1(O)C=C[C@H]2[C@@H]3CCC4=CC(=O)CC[C@@H]4[C@H]3CC[C@@]21CC` [GESTODENE], in assay [1], the “OSTEOBLAST STIMULATION” value is “NOT ACTIVE”; the “osteoblast proliferation and differentiation” value is on record as “do not stimulate”. Besides, in assay [2], the IC50 worked out at 13 nM.

Consider `C#C[C@]1(O)CC[C@H]2[C@@H]3CCC4=CC(=O)CC[C@@H]4[C@H]3CC[C@@]21C` [NORETHINDRONE], for which the osteoblast proliferation result in assay [1] (MC3T3-El cells, result in words) is given as “does possess osteoblast proliferative action; also recorded: dose-related increase”. Further, in assay [1], the “OSTEOBLAST STIMULATION” value is recorded as “ACTIVE”; the “osteoblast proliferation and differentiation” value is “significantly and reproducibly stimulate”. The “proliferation of breast cell line” value in assay [3] is reported as “dose-related increase”. Also, the osteoblast number result in assay [4] is listed as “induced an increase in osteoblast number”. Besides, the 3H-thymidine incorporation result in assay [5] is recorded as “increased”. For the same compound, in assay [6] (TE-85 cells, 0.0001 to 100 nM, result in words), the “secretion of alkaline phosphatase” value is reported as “increased”. In addition, in assay [6] (summary statement in words, cell line not named), the “cellular alkaline phosphatase activity in osteoblast-line cells” value is “stimulate”.
